Results as given in the NIST ThermoML archive (doi:10.1021/je600575r).
Numbers after ± are expanded uncertainties. Blank lines part the entries; values can stand above or below the compound they belong to.

Experiment: Solid-liquid equilibrium temperature
Settings: Crystal, visual observation

SMILES: CCCCCCCCCCC1CCCCC1 [decylcyclohexane]
- Solid-liquid equilibrium temperature (100 kPa): 271.3 ± 0.5 K
- Solid-liquid equilibrium temperature (20000 kPa): 276 ± 0.5 K
- Solid-liquid equilibrium temperature (40100 kPa): 280.5 ± 0.6 K
- Solid-liquid equilibrium temperature (59900 kPa): 284.8 ± 0.6 K
- Solid-liquid equilibrium temperature (80100 kPa): 289.2 ± 0.6 K
- Solid-liquid equilibrium temperature (100100 kPa): 293.9 ± 0.6 K

SMILES: CCCCCCCCCCCCCCCC1CCCCC1 [cyclohexane, pentadecyl-]
- Solid-liquid equilibrium temperature (100 kPa): 298.1 ± 1.1 K
- Solid-liquid equilibrium temperature (19300 kPa): 302.6 ± 1.1 K
- Solid-liquid equilibrium temperature (40000 kPa): 307.6 ± 1.1 K
- Solid-liquid equilibrium temperature (60100 kPa): 312.3 ± 1.1 K
- Solid-liquid equilibrium temperature (80300 kPa): 316.8 ± 1.1 K
- Solid-liquid equilibrium temperature (100100 kPa): 320.8 ± 1.1 K

SMILES: CCCCCCCCCCCCCC1CCCCC1 [cyclohexane, tridecyl-]
- Solid-liquid equilibrium temperature (100 kPa): 286.9 ± 1.1 K
- Solid-liquid equilibrium temperature (20000 kPa): 291.7 ± 1.1 K
- Solid-liquid equilibrium temperature (40200 kPa): 296.3 ± 1.1 K
- Solid-liquid equilibrium temperature (60000 kPa): 300.7 ± 1.1 K
- Solid-liquid equilibrium temperature (80100 kPa): 304.9 ± 1.1 K
- Solid-liquid equilibrium temperature (100000 kPa): 309.1 ± 1.1 K

The next lines start with the values.

- Solid-liquid equilibrium temperature (100 kPa): 314.3 ± 1.1 K
- Solid-liquid equilibrium temperature (20000 kPa): 319.3 ± 1.1 K
- Solid-liquid equilibrium temperature (39900 kPa): 324.2 ± 1.1 K
- Solid-liquid equilibrium temperature (59600 kPa): 328.8 ± 1.1 K
SMILES: CCCCCCCCCCCCCCCCCCC1CCCCC1 [octadecylcyclohexane]

- Solid-liquid equilibrium temperature (100 kPa): 315.7 ± 0.7 K
- Solid-liquid equilibrium temperature (19800 kPa): 320.6 ± 0.7 K
- Solid-liquid equilibrium temperature (39500 kPa): 324.8 ± 0.7 K
- Solid-liquid equilibrium temperature (59800 kPa): 329.2 ± 0.7 K
- Solid-liquid equilibrium temperature (78000 kPa): 333.7 ± 0.7 K
SMILES: CCCCCCCCCCCCCCCCCCCC1CCCCC1 [nonadecylcyclohexane]

- Solid-liquid equilibrium temperature (100 kPa): 272.4 ± 0.8 K
- Solid-liquid equilibrium temperature (20000 kPa): 276.8 ± 0.8 K
- Solid-liquid equilibrium temperature (40000 kPa): 281.3 ± 0.8 K
- Solid-liquid equilibrium temperature (60000 kPa): 285.7 ± 0.9 K
- Solid-liquid equilibrium temperature (80500 kPa): 289.9 ± 0.9 K
- Solid-liquid equilibrium temperature (100000 kPa): 293.9 ± 0.9 K
SMILES: CCCCCCCCCCCC1CCCCC1 [undecane, 1-cyclohexyl-]

- Solid-liquid equilibrium temperature (100 kPa): 285.8 ± 0.5 K
- Solid-liquid equilibrium temperature (19500 kPa): 290.6 ± 0.6 K
- Solid-liquid equilibrium temperature (39600 kPa): 295.2 ± 0.6 K
- Solid-liquid equilibrium temperature (60900 kPa): 299.9 ± 0.6 K
- Solid-liquid equilibrium temperature (79900 kPa): 304.2 ± 0.6 K
- Solid-liquid equilibrium temperature (100000 kPa): 308.4 ± 0.6 K
SMILES: CCCCCCCCCCCCC1CCCCC1 [dodecylcyclohexane]

- Solid-liquid equilibrium temperature (100 kPa): 297.2 ± 0.9 K
- Solid-liquid equilibrium temperature (20000 kPa): 302.2 ± 0.9 K
- Solid-liquid equilibrium temperature (39900 kPa): 307 ± 0.9 K
- Solid-liquid equilibrium temperature (60000 kPa): 311.5 ± 0.9 K
- Solid-liquid equilibrium temperature (79900 kPa): 316 ± 0.9 K
- Solid-liquid equilibrium temperature (100100 kPa): 320.3 ± 1 K
SMILES: CCCCCCCCCCCCCCC1CCCCC1 [tetradecylcyclohexane]
